Source: ChEMBL document CHEMBL1146688, “Aminoimidazoles as bioisosteres of acylguanidines: novel, potent, selective and orally bioavailable inhibitors of the sodium hydrogen exchanger isoform-1” (Bioorg Med Chem Lett, 2004)

Experiments:
[1] = biological target: Sodium/hydrogen exchanger 1 (Homo sapiens, UniProt P19634); assay: Inhibition of sodium dependent recovery of pH following imposed acidosis in AP1 cell line expressing the human NHE-1 isoform.; type: functional, cell-based
[2] = Oral bioavailability in rat (dose 2.8 mg/kg p.o.); type: ADME, organism-based; details: in vivo
[3] = Plasma half life in rat at oral dose 2.8 mg/mk body weight; type: ADME, organism-based

Sequence of Sodium/hydrogen exchanger 1 (P19634 whole entry, canonical isoform): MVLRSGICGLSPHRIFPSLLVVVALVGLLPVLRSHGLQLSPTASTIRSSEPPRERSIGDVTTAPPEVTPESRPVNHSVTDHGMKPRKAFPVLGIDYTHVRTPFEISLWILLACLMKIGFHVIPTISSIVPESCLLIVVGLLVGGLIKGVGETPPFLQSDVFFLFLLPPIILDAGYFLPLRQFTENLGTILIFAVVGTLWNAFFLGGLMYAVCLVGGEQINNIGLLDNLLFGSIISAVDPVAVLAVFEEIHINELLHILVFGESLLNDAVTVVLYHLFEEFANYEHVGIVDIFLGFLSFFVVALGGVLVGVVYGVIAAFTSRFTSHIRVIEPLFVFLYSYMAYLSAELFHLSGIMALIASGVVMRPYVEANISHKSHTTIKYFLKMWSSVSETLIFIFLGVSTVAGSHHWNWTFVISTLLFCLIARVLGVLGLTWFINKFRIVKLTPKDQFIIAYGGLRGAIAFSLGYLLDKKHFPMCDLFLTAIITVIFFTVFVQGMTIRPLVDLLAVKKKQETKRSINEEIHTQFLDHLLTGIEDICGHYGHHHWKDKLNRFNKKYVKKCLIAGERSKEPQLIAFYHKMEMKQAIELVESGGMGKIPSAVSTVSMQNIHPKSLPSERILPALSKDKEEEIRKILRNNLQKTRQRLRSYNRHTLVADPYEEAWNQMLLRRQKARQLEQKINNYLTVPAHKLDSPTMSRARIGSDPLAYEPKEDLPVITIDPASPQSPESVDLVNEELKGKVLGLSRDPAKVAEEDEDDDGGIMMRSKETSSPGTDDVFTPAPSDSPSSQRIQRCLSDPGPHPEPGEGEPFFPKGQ

SMILES	IC50 [1] [µM]	bioavailability [2] [%]	half-life [3] [h]
CC1(C)[C@H](c2cnc(N)s2)[C@H]1c1cccc2c1CCO2	> 30	–	–
CC1(C)C(c2cc(Cl)cc(Cl)c2)[C@H]1c1cc(N)nc(N)n1 (single isomer, unassigned)	3.6	–	–
CC1(C)C(c2cccc(Cl)c2)[C@H]1c1cnc(N)s1 (single isomer, unassigned)	8	–	–
Cc1[nH]cnc1[C@@H]1[C@@H](c2cccc3c2CCO3)C1(C)C	11	–	–
CC1(C)[C@H](c2c[nH]c(N)n2)[C@H]1c1cccc2c1CCO2	3.8	–	–
CC1(C)C(c2cccc(Cl)c2)[C@H]1c1c[nH]c(N)n1 (single isomer, unassigned)	0.75	–	–
CC1(C)C(c2cc(Cl)cc(Cl)c2)[C@H]1c1c[nH]c(N)n1 (single isomer, unassigned)	0.18	–	–
CC1(C)C(c2cccc(Cl)c2)[C@H]1C(=O)NC(=N)N (single isomer, unassigned)	0.021	26	5
CSc1nccn1[C@@H]1[C@@H](c2cccc(Cl)c2)C1(C)C	4.85	–	–
CC1(C)C(c2cc(Cl)cc(Cl)c2)[C@H]1c1cnc(N)s1 (single isomer, unassigned)	> 30	–	–
Cc1[nH]c(N)nc1[C@@H]1C(c2cc(Cl)cc(Cl)c2)C1(C)C (single isomer, unassigned)	0.008	–	–
CC1(C)C(c2cc(Cl)cc(Cl)c2)[C@H]1c1cnc[nH]1 (single isomer, unassigned)	4	–	–
Cc1nc(N)[nH]c1[C@@H]1C(c2cccc(Cl)c2)C1(C)C (single isomer, unassigned)	0.039	26	5
Cc1[nH]cnc1[C@@H]1C(c2cc(Cl)cc(Cl)c2)C1(C)C (single isomer, unassigned)	0.95	–	–
CC1(C)[C@H](c2c[nH]cn2)[C@H]1c1cccc2c1CCO2	> 30	–	–
CC1(C)[C@H](c2nc(N)no2)[C@H]1c1cccc2c1CCO2	30	–	–
Cc1[nH]c(N)nc1[C@@H]1[C@@H](c2cccc3c2CCO3)C1(C)C	2.6	–	–
